Starred links: 1 amine or outer side, 2 acyl side, 3 side chain; linkers in the order of their positions; H or OH if unused. Positions of bridges follow the written chain, without caps; N, C: chain ends. Non-standard residues stand in square brackets, D forms with d. Residues, ends and D or L forms follow the SMILES beside them. X3 = O=C([C@]1(CC=[*:3])CCCN1[*:1])[*:2]; Bta = N[C@@H](Cc1csc2ccccc12)C(=O)O; tBuAla = CC(C)(C)C[C@H](N)C(=O)O; 3Thi = N[C@@H](Cc1ccsc1)C(=O)O; R5 = C=CCCC[C@@](C)(N)C(=O)O; S5 = C=CCCC[C@](C)(N)C(=O)O; Aib = CC(C)(N)C(=O)O
Biological target: T1, full-length beta-Catenin (Uniprot ID P35222) (Homo sapiens, UniProt P35222)
T1 construct: 10 nM full-length beta-Catenin (Uniprot ID P35222)
T1 sequence (P35222 1-781): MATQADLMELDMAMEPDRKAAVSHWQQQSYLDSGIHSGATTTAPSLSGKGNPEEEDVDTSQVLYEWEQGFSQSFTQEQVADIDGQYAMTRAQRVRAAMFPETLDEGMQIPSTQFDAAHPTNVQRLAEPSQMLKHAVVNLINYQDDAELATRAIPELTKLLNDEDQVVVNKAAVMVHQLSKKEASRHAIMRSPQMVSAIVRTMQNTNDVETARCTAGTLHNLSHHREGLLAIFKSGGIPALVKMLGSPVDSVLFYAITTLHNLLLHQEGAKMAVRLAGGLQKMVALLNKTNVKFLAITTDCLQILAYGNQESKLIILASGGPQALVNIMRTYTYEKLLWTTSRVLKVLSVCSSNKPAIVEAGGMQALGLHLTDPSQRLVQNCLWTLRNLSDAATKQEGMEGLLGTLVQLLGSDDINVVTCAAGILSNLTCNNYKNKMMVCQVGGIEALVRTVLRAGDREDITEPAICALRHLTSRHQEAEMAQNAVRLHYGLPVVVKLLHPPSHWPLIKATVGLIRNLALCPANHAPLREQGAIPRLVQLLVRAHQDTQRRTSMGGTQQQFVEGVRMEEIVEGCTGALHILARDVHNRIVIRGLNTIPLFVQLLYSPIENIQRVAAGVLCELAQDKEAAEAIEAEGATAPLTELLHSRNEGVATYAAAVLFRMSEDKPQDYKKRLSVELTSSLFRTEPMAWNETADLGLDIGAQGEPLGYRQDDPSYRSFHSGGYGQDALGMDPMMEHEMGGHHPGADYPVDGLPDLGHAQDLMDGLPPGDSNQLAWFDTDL
Assay: Fluorescence polarization IC50 (beta-catenin / 5FAM-TCF4 10-53 competition)
Assay type: binding
Conditions: fluorescence polarization; read-out: beta-Catenin FP IC50

Row | IC50 [nM] | SMILES
1 | 253 | CC(=O)N1CCC[C@]12CC=CCCCC1(CCCC=CCCCOC(=O)N3CC[C@@](C(=O)N[C@@H](Cc4ccsc4)C(=O)N[C@@H](Cc4csc5ccccc45)C(=O)N[C@@H](CCC(N)=O)C(N)=O)(C3)NC(=O)[C@H](CC(C)C)NC(=O)[C@H](Cc3ccccc3)NC(=O)[C@H](C)NC(=O)[C@H](C)NC(=O)[C@H](CC(=O)S)NC(=O)[C@H](CC(=O)O)NC1=O)NC(=O)[C@H](CC(C)(C)C)NC(=O)[C@H](CC(=O)O)NC2=O (stereo partly drawn) [I-1947, Ac-PL3-Asp-Npg-B5-Asp-AspSH-Ala-Ala-Phe-Leu-PyrS2-3Thi-BztA-Gln-NH2]
2 | 327 | CC(=O)N1CCC[C@]12CC=CCCCC1(CCCC=CCCCOC(=O)N3CC[C@@](C(=O)N[C@@H](Cc4ccsc4)C(=O)N[C@@H](Cc4csc5ccccc45)C(=O)N[C@@H](CCC(N)=O)C(N)=O)(C3)NC(=O)[C@H](CC(C)C)NC(=O)[C@H](Cc3ccccc3)NC(=O)[C@H](C)NC(=O)[C@H](C)NC(=O)[C@H](Cc3ccccc3)NC(=O)[C@H](CC(=O)O)NC1=O)NC(=O)[C@H](CC(C)(C)C)NC(=O)[C@H](CC(=O)O)NC2=O (stereo partly drawn) [I-1441, Ac-PL3-Asp-Npg-B5-Asp-Phe-Ala-Ala-Phe-Leu-PyrS2-3Thi-BztA-Gln-NH2]
3 | 689 | CC(=O)N1CCC[C@]12CC=CCCC1(CCC=CCCCOC(=O)N3CC[C@@](C(=O)N[C@@H](Cc4ccsc4)C(=O)N[C@@H](Cc4csc5ccccc45)C(=O)N[C@@H](CCC(N)=O)C(N)=O)(C3)NC(=O)[C@H](CC(C)C)NC(=O)[C@H](Cc3ccccc3)NC(=O)[C@H](C)NC(=O)[C@H](C)NC(=O)[C@H](CC(=O)O)NC(=O)[C@H](CC(=O)O)NC1=O)NC(=O)[C@H](CC(C)(C)C)NC(=O)[C@H](CC(=O)O)NC2=O (stereo partly drawn) [I-1972, Ac-PL3-Asp-Npg-B4-Asp-Asp-Ala-Ala-Phe-Leu-PyrS2-3Thi-BztA-Gln-NH2]
4 | 266 | CC(C)C[C@@H]1NC(=O)[C@H](Cc2ccccc2)NC(=O)[C@H](C)NC(=O)[C@H](C)NC(=O)[C@H](CN(CC(=O)O)CC(F)(F)F)NC(=O)[C@H](CC(=O)O)NC(=O)C2(CCCC=CCCCOC(=O)N3CC[C@@](C(=O)N[C@@H](Cc4ccsc4)C(=O)N[C@@H](Cc4csc5ccccc45)C(=O)N[C@@H](CCC(N)=O)C(N)=O)(C3)NC1=O)CCCC=CCS(=O)(=O)N1CCC[C@@H]1C(=O)N[C@@H](CC(=O)O)C(=O)N[C@@H](CC(C)(C)C)C(=O)N2 (stereo partly drawn) [I-2266, ProSAm3-Asp-Npg-B5-Asp-TfeGA-Ala-Ala-Phe-Leu-PyrS2-3Thi-BztA-Gln-NH2]
5 | 134 | CC(=O)N1CCC[C@]12CC=CCCCC1(CCCC=CCCCOC(=O)N3CC[C@@](C(=O)N[C@@H](Cc4ccsc4)C(=O)N[C@@H](Cc4csc5ccccc45)C(=O)N[C@@H](CCC(N)=O)C(N)=O)(C3)NC(=O)[C@H](CC(C)C)NC(=O)[C@H](Cc3ccccc3)NC(=O)[C@H](C)NC(=O)[C@H](C)NC(=O)[C@H](CC(=O)O)NC(=O)[C@H](CC(=O)O)NC1=O)NC(=O)[C@H](CC(C)(C)C)NC(=O)[C@H](CCO)NC2=O (stereo partly drawn) [I-1229, Ac-PL3-Hse-Npg-B5-Asp-Asp-Ala-Ala-Phe-Leu-PyrS2-3Thi-BztA-Gln-NH2]

Second part, the compound before the results:

Row | SMILES | IC50 [nM]
6 | CC(=O)N1CCC[C@]12CC=CCCC[C@@](C)(C(=O)N[C@@H](CC(=O)O)C(=O)N[C@@H](CC(=O)O)C(=O)NC(C)(C)C(=O)N[C@@H](C)C(=O)N[C@@H](Cc1ccccc1)C(=O)N[C@]1(C)CCCC=CCCC[C@@](C)(C(=O)N[C@@H](C)C(N)=O)NC(=O)[C@H](Cc3csc4ccccc34)NC(=O)[C@H](Cc3ccsc3)NC(=O)[C@H](C)NC1=O)NC(=O)[C@H](CC(C)(C)C)NC(=O)[C@H](CC(=O)O)NC2=O [I-1780, Ac-PL3-Asp-Npg-S5-Asp-Asp-Aib-Ala-Phe-R5-Ala-3Thi-BztA-S5-Ala-NH2] (Ac-[X3]D[tBuAla][S5]DD[Aib]AF[R5]A[3Thi][Bta][S5]A-NH2; staple 1-4, 10-14 (inferred)) | 4190
7 | CC(=O)N1CCC[C@]12CC=CCCCC1(CCCC=CCCCOC(=O)N3CC[C@@](C(=O)N[C@@H](Cc4ccsc4)C(=O)N[C@@H](Cc4csc5ccccc45)C(=O)N[C@@H](CCC(N)=O)C(N)=O)(C3)NC(=O)[C@H](CC(N)=O)NC(=O)[C@H](Cc3cccc(Cl)c3)NC(=O)[C@H](C)NC(=O)[C@H](C)NC(=O)[C@H]([C@@H](C)O)NC(=O)[C@H](CC(N)=O)NC1=O)NC(=O)[C@H](CC(C)(C)C)NC(=O)[C@H](CC(=O)O)NC2=O (stereo partly drawn) [I-2013, Ac-PL3-Asp-Npg-B5-Asn-Thr-Ala-Ala-3C1F-Asn-PyrS2-3Thi-BztA-Gln-NH2] | 661
8 | CC(=O)N1CCC[C@]12CC=CCCCCC1(CCCCC=CCCOC(=O)N3CC[C@@](C(=O)N[C@@H](Cc4ccccc4C(F)(F)F)C(=O)N[C@@H](Cc4csc5ccccc45)C(=O)N[C@@H](C)C(N)=O)(C3)NC(=O)[C@H](CC(C)C)NC(=O)[C@H](Cc3ccccc3)NC(=O)[C@H](C)NC(=O)[C@H](CCC(N)=O)NC(=O)[C@H](Cc3cccc(C(=O)O)c3)NC(=O)[C@H](CC(=O)O)NC1=O)NC(=O)[C@H](CC(C)(C)C)NC(=O)[C@H](CC(=O)O)NC2=O (stereo partly drawn) [I-2519, Ac-PL3-Asp-Npg-B6-Asp-3COOHF-Gln-Ala-Phe-Leu-PyrS1-2F3MeF-BztA-Ala-NH2] | 94
9 | CC(=O)N1CCC[C@]12CC=CCCCC1(CCCC=CCCCOC(=O)N3CC[C@@](C(=O)N[C@@H](Cc4ccccc4)C(=O)N[C@@H](Cc4csc5ccccc45)C(=O)N[C@@H](CCCCNC(C)C)C(N)=O)(C3)NC(=O)[C@H](CCCCNC(C)C)NC(=O)[C@H](Cc3ccccc3)NC(=O)[C@H](C)NC(=O)[C@H](CCCCNC(C)C)NC(=O)[C@H](CCC(N)=O)NC(=O)[C@H](CC(=O)O)NC1=O)NC(=O)[C@H](CC(C)(C)C)NC(=O)[C@H](CC(N)=O)NC2=O (stereo partly drawn) [I-1654, Ac-PL3-Asn-Npg-B5-Asp-Gln-iPrLys-Ala-Phe-iPrLys-PyrS2-Phe-BztA-iPrLys-NH2] | 2130
10 | CC(=O)N1CCC[C@]12CC=CCCCCC1(CCCCC=CCOC(=O)N3CC[C@@](C(=O)N[C@@H](Cc4ccccc4C(F)(F)F)C(=O)N[C@@H](Cc4csc5ccccc45)C(=O)N[C@@H](C)C(N)=O)(C3)NC(=O)[C@H](CC(C)C)NC(=O)[C@H](Cc3ccccc3)NC(=O)[C@H](C)NC(=O)[C@H](CCC(N)=O)NC(=O)[C@H](Cc3cccc(C(=O)O)c3)NC(=O)[C@H](CC(=O)O)NC1=O)NC(=O)[C@H](CC(C)(C)C)NC(=O)[C@H](CC(=O)O)NC2=O (stereo partly drawn) [I-2506, Ac-PL3-Asp-Npg-B6-Asp-3COOHF-Gln-Ala-Phe-Leu-PyrS-2F3MeF-BztA-Ala-NH2] | 332
11 | CCCCCCSSCCOC(=O)C[C@@H]1NC(=O)[C@]2(CC=CCCCC3(CCCC=CCCCOC(=O)N4CC[C@@](C(=O)N[C@@H](Cc5ccsc5)C(=O)N[C@@H](Cc5csc6ccccc56)C(=O)N[C@@H](CCC(N)=O)C(N)=O)(C4)NC(=O)[C@H](CC(C)C)NC(=O)[C@H](Cc4ccccc4)NC(=O)[C@H](C)NC(=O)[C@H](C)NC(=O)[C@H](CC(=O)O)NC(=O)[C@H](CC(=O)O)NC3=O)NC(=O)[C@H](CC(C)(C)C)NC1=O)CCCN2C(C)=O (stereo partly drawn) [I-1960, Ac-PL3-[EtSSHex]AspE-Npg-B5-Asp-Asp-Ala-Ala-Phe-Leu-PyrS2-3Thi-BztA-Gln-NH2] | 544
12 | CC(=O)N1CCC[C@]12CC=CCCCC1(CCCC=CCCCOC(=O)N3CC[C@@](C(=O)N[C@@H](Cc4ccsc4)C(=O)N[C@@H](Cc4csc5ccccc45)C(=O)N[C@@H](CC(C)(C)C)C(N)=O)(C3)NC(=O)[C@H](CC(C)C)NC(=O)[C@H](Cc3ccccc3)NC(=O)[C@H](C)NC(=O)[C@H](CC(=O)N(C)C)NC(=O)[C@H](Cc3cccc(C(=O)O)c3)NC(=O)[C@H](CC(=O)O)NC1=O)NC(=O)[C@H](CC(C)(C)C)NC(=O)[C@H](CC(=O)O)NC2=O (stereo partly drawn) [I-2196, Ac-PL3-Asp-Npg-B5-Asp-3COOHF-Me2Asn-Ala-Phe-Leu-PyrS2-3Thi-BztA-Npg-NH2] | 41
13 | CCCc1cn(CCCC[C@H](NC(=O)[C@H](CO)NC(=O)[C@H](Cc2csc3ccccc23)NC(=O)[C@H](Cc2ccccc2C(F)(F)F)NC(=O)[C@]23CCN(C2)C(=O)OCCCC=CCCCC2(CCCC=CC[C@]4(CCCN4C(C)=O)C(=O)N[C@@H](CC(=O)O)C(=O)N[C@@H](CC(C)(C)C)C(=O)N2)C(=O)N[C@@H](CC(=O)O)C(=O)N[C@@H](Cc2cccc(C(=O)O)c2)C(=O)N[C@@H](C)C(=O)N[C@@H](C)C(=O)N[C@@H](Cc2ccccc2)C(=O)N[C@@H](CC(C)C)C(=O)N3)C(N)=O)nn1 (stereo partly drawn) [I-2432, Ac-PL3-Asp-Npg-B5-Asp-3COOHF-Ala-Ala-Phe-Leu-PyrS2-2F3MeF-BztA-Ser-[3C]TriAzLys-NH2] | 60
14 | CCSSCCOC(=O)CC[C@@H]1NC(=O)[C@H](CC(=O)O)NC(=O)C2(CCCC=CCCCOC(=O)N3CC[C@@](C(=O)N[C@@H](Cc4ccsc4)C(=O)N[C@@H](Cc4csc5ccccc45)C(=O)N[C@@H](CCC(N)=O)C(N)=O)(C3)NC(=O)[C@H](CC(C)C)NC(=O)[C@H](Cc3ccccc3)NC(=O)[C@H](C)NC(=O)[C@H](C)NC1=O)CCCC=CC[C@]1(CCCN1C(C)=O)C(=O)N[C@@H](CC(=O)O)C(=O)N[C@@H](CC(C)(C)C)C(=O)N2 (stereo partly drawn) [I-1966, Ac-PL3-Asp-Npg-B5-Asp-[EtSSEt]GluE-Ala-Ala-Phe-Leu-PyrS2-3Thi-BztA-Gln-NH2] | 566
